How the values were obtained:
[1] = target: T1, androgen receptor (AR) (Homo sapiens, UniProt P10275); experiment: Luciferase reporter gene experiment (MMTV-LUC + pSV-AR in 293T cells); type: cell-based; settings: 10 nM DHT, FIG. 2
T1 construct: expressed in transfected cells; host or cells: 293T cells
T1 sequence (P10275 1-920): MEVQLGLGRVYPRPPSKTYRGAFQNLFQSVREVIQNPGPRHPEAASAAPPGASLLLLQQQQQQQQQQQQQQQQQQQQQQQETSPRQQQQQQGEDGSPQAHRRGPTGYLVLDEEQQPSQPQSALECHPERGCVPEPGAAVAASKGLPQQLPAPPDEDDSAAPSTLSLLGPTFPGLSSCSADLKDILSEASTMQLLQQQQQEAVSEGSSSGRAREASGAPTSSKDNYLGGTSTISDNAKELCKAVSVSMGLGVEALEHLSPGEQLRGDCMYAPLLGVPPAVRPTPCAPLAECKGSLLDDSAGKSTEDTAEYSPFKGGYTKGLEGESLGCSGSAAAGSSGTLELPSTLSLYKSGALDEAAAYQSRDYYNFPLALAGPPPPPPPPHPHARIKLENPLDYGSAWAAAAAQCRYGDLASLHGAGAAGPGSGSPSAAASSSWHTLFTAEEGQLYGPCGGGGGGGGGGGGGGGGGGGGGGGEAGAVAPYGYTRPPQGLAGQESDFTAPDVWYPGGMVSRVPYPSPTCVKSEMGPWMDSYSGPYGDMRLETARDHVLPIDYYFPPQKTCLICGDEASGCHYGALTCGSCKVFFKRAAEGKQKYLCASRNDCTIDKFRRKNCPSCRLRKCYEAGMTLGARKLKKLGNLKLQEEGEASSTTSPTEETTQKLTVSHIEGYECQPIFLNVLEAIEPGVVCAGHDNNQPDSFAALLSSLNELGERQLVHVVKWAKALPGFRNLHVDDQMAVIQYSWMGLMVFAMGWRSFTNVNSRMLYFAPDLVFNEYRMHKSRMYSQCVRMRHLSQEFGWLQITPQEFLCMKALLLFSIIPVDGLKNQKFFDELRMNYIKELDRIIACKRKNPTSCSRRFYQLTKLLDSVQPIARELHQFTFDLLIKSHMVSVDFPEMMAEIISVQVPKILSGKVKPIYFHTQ
Experimental: 293T cells are cultured in a 96-well plate. AR plasmids and luciferase genes with AR target promoters are co-transfected in the 293T cells. AR activates the target promoters to express luciferase, and the expression level of the luciferase is directly proportional to AR activation. Adding DHT to the cells can activate AR and express the luciferase, thus enhancing fluorescence signal detection. By detecting the fluorescent signal, it can be examined whether an added drug has AR antagonist activity.
The luciferase reporter gene plasmid MMTV-LUC containing the androgen receptor (AR) target promoters and the plasmid pSV-AR expressing the androgen receptor (AR) are constructed. The 293T cells are inoculated in a 96-well plate, wherein each well containing 1×10^4 cells. The cells are incubated overnight to stick to the wall. On the second day, Lipofectamine® 3000 (Life technologies, USA) is used to transfect the plasmid into the cells. Each well is added with 180 ng of MMTV-LUC plasmid and 20 ng of pSV-AR plasmid. On the third day, each well is added with 10 nM of the DHT and the drugs of different concentrations of 1 nM, 10 nM, 100 nM, 1 uM, 10 uM, 25 uM, 50 uM respectively. The control is 10 nM of the DHT. On the fifth day, a luciferase reporter gene detection kit (Biyuntian company, China) is used to process the cells. 100 uL of cell lysate is added to the 96-well plate, and lyse for 20 min. Then centrifuging is performed at 4 degrees and 10000 g for 3 min. 50 uL of supernatant is taken and 100 uL of a luciferase detection reagent is added. After mixing, chemiluminescence is immediately detected on the multi-functional microplate reader. Graphpad Prism software is used to draw a curve by using the drug concentration as an abscissa and using drug fluorescence value/positive control fluorescence value as an ordinate. Herein MDV3100 is the positive control.

[2] = test system: Histone deacetylase (HDAC); experiment: HDAC inhibitory activity: Kac-H3 Western Blot in VCaP cells; type: cell-based; settings: 10 uM drug, 24 h, FIG. 5
Experimental: (§1) The VCap cells are cultured in the 6-well plate. After treating the VCap cells with the drugs for 24 hours, acetylation levels of the tubulin in the cytoplasm and the H3 protein in the nucleus are examined by the western blot. An experiment process is as follows:
The VCaP cells are spread in the 6-well plate. 5×10^5 cells are inoculated per well, and incubated overnight to make the cells stick to a wall. Then 10 uM of the drug is added to each well. The cells are collected after being incubated for 24 h. The EpiQuik Total Histone Extraction kit (Epigentek, USA) is used to extract the histones, and the Western Blot method is used to detect expression levels of Kac-H3 (localized cell nucleus) in the cells after adding the different drugs.

[3] = test system: VCaP cells; experiment: Inhibiting effect on VCaP cell proliferation (MTS); type: cell-based; settings: 4 days treatment, FIG. 6; for cell proliferation inhibitory effect compared with positive control drug MDV3100: VCaP cells
Experimental: Androgen-sensitive prostate cancer cell (VCaP cells) are cultured in a 96-well plate. The VCaP cells are able to proliferate in a medium supplemented with 10 nM of the DHT. After treating the cells with the drugs for 4 days, we measure the effects of the drugs on the proliferation of the prostate cancer cells.
The VCaP cells are cultured by using 5% CSS and 1640 medium without phenol red, and inoculated in the 96-well plate. 1×10^4 cells are added to each well, and incubated overnight to make the cells stick to a wall. Different concentrations of the drugs are added on the second day. After treating the cells with the drugs for 4 days, cell viability is measured by the MTS kit (Promega, USA). To each well, 10% of an MTS reagent is added, and incubation continued for 2 hours. The absorbance value at […] is then measured by the multi-functional microplate reader. The Graphpad Prism software is used to draw a curve by using the drug concentration as an abscissa and using the absorbance value of the drug treatment/the absorbance value of the blank treatment cell as an ordinate.

[4] = test system: Histone deacetylase (HDAC); experiment: HDAC inhibitory activity: Kac-tubulin Western Blot in VCaP cells; type: cell-based; settings: 10 uM drug, 24 h, FIG. 4
Experimental: as §1
The VCaP cells are spread in the 6-well plate. 5×10^5 cells are inoculated per well, and incubated overnight to make the cells stick to a wall. On the second day, 10 uM of the drug is added per well. After being incubated for 24 h, the cells are collected, and lysed to extract the cell total protein. The Western Blot method is used to detect the expression levels of Kac-tubilin (localized cytoplasm) in the cells after treating with the different drugs.

[5] = target: T2, AR-LBD (GST) (Rattus norvegicus, UniProt P15207); experiment: PolarScreen Androgen Receptor (AR) Competitor Assay, binding experiment of the antagonist and AR; settings: fluorescence polarization, incubated 6 hours, FIG. 1; read-out: IC50 of the drug and AR-LBD binding
T2 construct: purchased Life technologies company, USA
T2 sequence (P15207 651-882 limits assumed): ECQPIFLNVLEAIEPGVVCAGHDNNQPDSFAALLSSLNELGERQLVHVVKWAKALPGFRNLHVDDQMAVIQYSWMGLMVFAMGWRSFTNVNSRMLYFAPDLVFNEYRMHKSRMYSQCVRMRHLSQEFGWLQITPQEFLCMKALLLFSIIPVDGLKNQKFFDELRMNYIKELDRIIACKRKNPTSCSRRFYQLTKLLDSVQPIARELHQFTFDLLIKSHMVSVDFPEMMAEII
Description: PolarScreen™ Androgen Receptor (AR) Competitor Assay, Green kit (Life technologies company, USA) is used to test the affinity of the antagonist to AR-LBD (GST). The mechanism of the experiment is that the AR-LBD is combined with a small molecule fluormone tracer (Fluormone Tracer), and an antagonist added can competitively bind with AR-LBD so as to replace the fluormone tracer, and the replaced fluormone tracer […], and the value of the fluorescence polarization is inversely proportional to the number of the replaced tracers.
A specific process is as follows: the drug is dissolved into 500 uM by using DMSO, and then diluted to 244 nM by double dilution concentration gradients in a 96-well plate. A 10 uL of a reaction system AR-LBD+Tracer is configured in a 384-well plate and 10 uL of the drug solution is added. The positive control is 10 uL of AR-LBD+Tracer with 10 uL of DHT added. The 384-well plate is wrapped by tin foil and incubated for 6 hours in the dark. The fluorescence polarization value is read on a multi-function microplate reader. Graphpad Prism software is used to draw a drug concentration as an abscissa, and the fluorescence polarization value is used as an ordinate for drawing a curve. […] Herein, the DHT, MDV3100, and ARN509 are positive controls.

| Structure (SMILES) | antagonist effect on the AR, antagonistic ability from high to low [1] | H3 acetylation in the nucleus (HDAC inhibitory activity) [2] | inhibitory effect on the VCap cell proliferation, from high to low [3] | acetylation of the tubulin in the cytoplasm (HDAC inhibitory activity) [4] | IC50 [5] [µM] | cell proliferation inhibitory effect compared with positive control drug MDV3100 [3] |
| --- | --- | --- | --- | --- | --- | --- |
| CC1(C)C(=O)N(c2ccc(C#N)c(Cl)c2)C(=S)N1c1ccc(C(=O)NO)c(F)c1 [Zeta 34, 4-(3-(3-chloro-4-cyanophenyl)-5,5-dimethyl-4-oxo-2-thioimidazolidine-1-yl)-2-fluoro-N-hydroxybenzamide] | Zeta32>Zeta55>Zeta34>Zeta57>Zeta33 | superior | Zeta55>Zeta32>Zeta33>Zeta34>Zeta57 |  |  |  |
| N#Cc1ncc(N2C(=O)C3(CCC3)N(c3ccc(C(=O)NO)c(F)c3)C2=S)cc1C(F)(F)F [Zeta 57, 4-(7-(6-cyano-5-(trifluoromethyl)pyridin-3-yl)-8-oxo-6-thio-5,7-diazaspiro[3.4]octane-5-yl)-2-fluoro-N-hydroxybenzamide] | Zeta32>Zeta55>Zeta34>Zeta57>Zeta33 | superior | Zeta55>Zeta32>Zeta33>Zeta34>Zeta57 |  |  |  |
| CC1(C)C(=O)N(c2ccc(C#N)c(C(F)(F)F)c2)C(=S)N1c1ccc(C(=O)NO)c(F)c1 [Zeta 32, 4-(3-(4-cyano-3-(trifluoromethyl)phenyl)-5,5-dimethyl-4-oxo-2-thioimidazolidine-1-yl)-2-fluoro-N-hydroxybenzamide] | Zeta32>Zeta55>Zeta34>Zeta57>Zeta33 | superior | Zeta55>Zeta32>Zeta33>Zeta34>Zeta57 | superior | 25.1 | better than that of the positive control drug MDV3100 |
| CC1(C)C(=O)N(c2cnc(C#N)c(C(F)(F)F)c2)C(=S)N1c1ccc(C(=O)NO)c(F)c1 [Zeta 33, 4-(3-(6-cyano-5-(trifluoromethyl)pyridin-3-yl)-5,5-dimethyl-4-oxo-2-thioimidazolidine-1-yl)-2-fluoro-N-hydroxybenzamide] | Zeta32>Zeta55>Zeta34>Zeta57>Zeta33 |  | Zeta55>Zeta32>Zeta33>Zeta34>Zeta57 |  | 27.5 | better than that of the positive control drug MDV3100 |
